Experiment [1] has as its target Bruton Tyrosine Kinase (BTK) (Homo sapiens (Human), UniProt Q06187). As to the kind of experiment: Rabbit reticulocyte lysate assay (KinaseSeeker competition binding). The following applies: read-out: IC50 Activity Levels Against Bruton Tyrosine Kinase: BTK. As to the method:
1. Rabbit Reticulocyte Lysate Assay Design:
KinaseSeeker is a homogeneous competition binding assay where the displacement of an active site dependent probe by an inhibitor is measured by a change in luminescence signal. Luminescence readout translates into a highly sensitive and robust assay with low background and minimal interference from test compounds.
10 mM stock solutions of test compounds were serially diluted in DMSO to make assay stocks. Prior to initiating IC50 determinations, the test compounds were evaluated for false positive against split-luciferase.
Each test compound was screened in duplicate against target kinase at 7 different concentrations. For kinase assays, Cfluc-kinase was translated along with Fos-Nfluc using a cell-free system (rabbit reticulocyte lysate) at 30° C. for 90 min. 24 uL aliquot of this lysate containing either 1 uL of DMSO (for no-inhibitor control) or compound solution in DMSO was incubated for 30 minutes at room temperature followed by 1 hour in presence of a kinase specific probe. 80 uL of luciferin assay reagent was added to each solution and luminescence was immediately measured on a luminometer.
The % Inhibition and % Activity Remaining was calculated using the following equation: % Inhibition=[(ALUControl−ALUSample)/ALUControl]×100 % Activity Remaining=100−% Inhibition
The % Activity was plotted against compound concentration and the IC50 was determined for each compound using a 7-point curve (Jester, B. W.; et. al. J. Am. Chem. Soc. 2010, 132, 11727-11735. Jester, B. W., et. al. J. Med. Chem. 2012, 55, 1526-1537). Biological activity of representative compounds of the disclosure are described in Table 5.

For another experiment, the target named is MEK6 (Homo sapiens (Human), UniProt P52564). Kind of experiment: KINOMEscan competition binding assay (Kd). The note with it: read-out: Kd Values Against MEK Kinases Isoforms: MEK6. How it is done:
(§1) KINOMEscan™ is based on a competition binding assay that quantitatively measures the ability of a test compound of the invention to compete with an immobilized, active-site directed ligand. The Kinase assay is performed by combining three components: DNA-tagged kinase; immobilized ligand; and a test compound. The ability of the test compound to compete with the immobilized ligand is measured via quantitative PCR of the DNA tag.
(§2) For most assays, kinase-tagged T7 phage strains were prepared in an E. coli host derived from the BL21 strain. E. coli were grown to log-phase and infected with T7 phage and incubated with shaking at 32° C. until lysis. The lysates were centrifuged and filtered to remove cell debris. The remaining kinases were produced in HEK-293 cells and subsequently tagged with DNA for qPCR detection. Streptavidin-coated magnetic beads were treated with biotinylated small molecule ligands for 30 minutes at room temperature to generate affinity resins for kinase assays. The liganded beads were blocked with excess biotin and washed with blocking buffer (SeaBlock (Pierce), 1% BSA, 0.05% Tween 20, 1 mM DTT) to remove unbound ligand and to reduce nonspecific binding. […] All reactions were performed in polystyrene 96-well plates in a final volume of 0.135 ml. […] The kinase concentration in the eluates was measured by qPCR.

The next experiment deals with MEK7 (Homo sapiens (Human), UniProt O14733). Kind of experiment: KINOMEscan competition binding assay (Kd). The following applies: read-out: Kd Values Against MEK Kinases Isoforms: MEK7. How it is done:
as §1, §2

For the next experiment, the target named is BRAF (Homo sapiens (Human), UniProt P15056). Kind of experiment: Radioisotope filter binding assay. The following applies: read-out: IC50 Activity Levels Against MAPK Pathway Kinases: BRAF. Format: biochemical. In a few lines: (§3)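 Compound + kinase + substrate/cofactors, 20 min RT preincubation; 33P-ATP added to start, 2 h RT. Buffer: 20 mM Hepes pH 7.5, 10 mM MgCl2, 1 mM EGTA, 0.02% Brij35, 2 mM DTT, 0.1 mM Na3VO4, 1% DMSO. Spotted on P81 paper, washed, counted.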

The next experiment has as its target HER4 (Homo sapiens (Human), UniProt Q15303). As to the kind of experiment: Radioisotope filter binding assay. Type of experiment: biochemical. The following applies: read-out: IC50 Activity Levels Against RTKs (c-Kit, RET, HER4) and AurA, CHK2 Kinases: HER4. In a few lines: as §3
Another experiment has as its target KDR/VEGFR2 (Homo sapiens (Human), UniProt P35968). As to the kind of experiment: Radioisotope filter binding assay. Format: biochemical. The following applies: read-out: IC50 Activity Levels Against MAPK Pathway Kinases: KDR/VEGFR2. In a few lines:
as §3

A further experiment deals with RET (Homo sapiens (Human), UniProt P07949). Kind of experiment: Radioisotope filter binding assay. Format: biochemical. The note with it: read-out: IC50 Activity Levels Against RTKs (c-Kit, RET, HER4) and AurA, CHK2 Kinases: RET. An outline of the steps: as §3
The next experiment addresses c-KIT (Homo sapiens (Human), UniProt P10721). Kind of experiment: Radioisotope filter binding assay. The note with it: read-out: IC50 Activity Levels Against RTKs (c-Kit, RET, HER4) and AurA, CHK2 Kinases: c-KIT. Format: biochemical. An outline of the steps:
as §3

Another experiment has as its target FYN isoform (a) (Homo sapiens (Human), UniProt P06241). Kind of experiment: Kinase binding assay CaPBA. The following applies: read-out: IC50 Activity Levels Against FYN isoforms, YES1 and MEK5: FYN isoform (a). An excerpt: (§4) 4. Kinase Binding Assay CaPBA:
For a further experiment, the target named is FYN isoform (b) (Homo sapiens (Human), UniProt P06241). As to the kind of experiment: Kinase binding assay CaPBA. The following applies: read-out: IC50 Activity Levels Against FYN isoforms, YES1 and MEK5: FYN isoform (b).
Source text: as §4

For another experiment, the target named is MEK5 (Homo sapiens (Human), UniProt Q13163). As to the kind of experiment: Kinase binding assay CaPBA. The following applies: read-out: IC50 Activity Levels Against FYN isoforms, YES1 and MEK5: MEK5.
Source text: as §4

The structures appear in SMILES notation.

Bruton Tyrosine Kinase (BTK), sequence (Q06187 whole entry): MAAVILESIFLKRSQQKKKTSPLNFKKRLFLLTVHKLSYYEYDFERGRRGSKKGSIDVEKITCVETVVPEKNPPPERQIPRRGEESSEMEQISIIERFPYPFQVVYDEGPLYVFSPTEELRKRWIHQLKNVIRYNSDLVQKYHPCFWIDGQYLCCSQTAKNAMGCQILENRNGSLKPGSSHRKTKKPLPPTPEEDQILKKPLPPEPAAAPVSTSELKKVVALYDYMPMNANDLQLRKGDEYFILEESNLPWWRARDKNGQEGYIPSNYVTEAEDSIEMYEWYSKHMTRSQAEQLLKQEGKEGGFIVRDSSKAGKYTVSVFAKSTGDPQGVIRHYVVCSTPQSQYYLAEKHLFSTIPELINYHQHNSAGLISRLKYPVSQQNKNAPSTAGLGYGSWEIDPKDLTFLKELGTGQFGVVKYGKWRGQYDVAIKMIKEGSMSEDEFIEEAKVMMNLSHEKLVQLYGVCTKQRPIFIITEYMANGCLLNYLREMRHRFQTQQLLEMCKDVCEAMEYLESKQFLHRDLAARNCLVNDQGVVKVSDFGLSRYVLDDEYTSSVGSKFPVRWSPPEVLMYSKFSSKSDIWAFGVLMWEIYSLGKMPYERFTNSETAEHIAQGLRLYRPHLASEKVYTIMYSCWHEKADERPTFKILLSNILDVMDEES
RET, sequence (P07949 29-1114): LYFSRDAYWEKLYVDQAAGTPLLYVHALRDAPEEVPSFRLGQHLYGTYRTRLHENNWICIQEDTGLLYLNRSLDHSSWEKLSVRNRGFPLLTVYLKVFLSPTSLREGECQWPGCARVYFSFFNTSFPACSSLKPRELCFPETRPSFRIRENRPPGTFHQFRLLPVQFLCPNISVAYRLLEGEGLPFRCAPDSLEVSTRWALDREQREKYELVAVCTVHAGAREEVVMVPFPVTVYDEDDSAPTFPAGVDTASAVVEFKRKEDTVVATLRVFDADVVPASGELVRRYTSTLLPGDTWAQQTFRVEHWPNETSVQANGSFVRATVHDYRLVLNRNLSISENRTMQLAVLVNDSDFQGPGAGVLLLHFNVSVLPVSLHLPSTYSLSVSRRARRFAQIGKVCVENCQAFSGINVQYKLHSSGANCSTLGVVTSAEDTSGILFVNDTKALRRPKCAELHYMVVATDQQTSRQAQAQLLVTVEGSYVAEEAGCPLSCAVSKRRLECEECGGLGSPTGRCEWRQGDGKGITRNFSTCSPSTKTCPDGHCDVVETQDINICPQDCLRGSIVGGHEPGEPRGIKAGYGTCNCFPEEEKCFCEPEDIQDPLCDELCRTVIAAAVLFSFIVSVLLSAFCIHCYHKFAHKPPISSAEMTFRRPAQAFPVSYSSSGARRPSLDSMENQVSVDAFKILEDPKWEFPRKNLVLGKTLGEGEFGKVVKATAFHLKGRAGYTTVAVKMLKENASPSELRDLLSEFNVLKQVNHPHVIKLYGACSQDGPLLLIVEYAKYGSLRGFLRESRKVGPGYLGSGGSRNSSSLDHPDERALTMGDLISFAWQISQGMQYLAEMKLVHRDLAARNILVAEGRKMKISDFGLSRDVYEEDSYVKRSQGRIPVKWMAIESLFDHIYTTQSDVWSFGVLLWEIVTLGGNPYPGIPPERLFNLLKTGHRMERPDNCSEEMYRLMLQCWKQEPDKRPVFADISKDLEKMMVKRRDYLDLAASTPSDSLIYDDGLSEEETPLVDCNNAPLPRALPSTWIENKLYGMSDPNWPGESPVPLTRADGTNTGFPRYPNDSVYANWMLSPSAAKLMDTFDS
BRAF, sequence (P15056 whole entry): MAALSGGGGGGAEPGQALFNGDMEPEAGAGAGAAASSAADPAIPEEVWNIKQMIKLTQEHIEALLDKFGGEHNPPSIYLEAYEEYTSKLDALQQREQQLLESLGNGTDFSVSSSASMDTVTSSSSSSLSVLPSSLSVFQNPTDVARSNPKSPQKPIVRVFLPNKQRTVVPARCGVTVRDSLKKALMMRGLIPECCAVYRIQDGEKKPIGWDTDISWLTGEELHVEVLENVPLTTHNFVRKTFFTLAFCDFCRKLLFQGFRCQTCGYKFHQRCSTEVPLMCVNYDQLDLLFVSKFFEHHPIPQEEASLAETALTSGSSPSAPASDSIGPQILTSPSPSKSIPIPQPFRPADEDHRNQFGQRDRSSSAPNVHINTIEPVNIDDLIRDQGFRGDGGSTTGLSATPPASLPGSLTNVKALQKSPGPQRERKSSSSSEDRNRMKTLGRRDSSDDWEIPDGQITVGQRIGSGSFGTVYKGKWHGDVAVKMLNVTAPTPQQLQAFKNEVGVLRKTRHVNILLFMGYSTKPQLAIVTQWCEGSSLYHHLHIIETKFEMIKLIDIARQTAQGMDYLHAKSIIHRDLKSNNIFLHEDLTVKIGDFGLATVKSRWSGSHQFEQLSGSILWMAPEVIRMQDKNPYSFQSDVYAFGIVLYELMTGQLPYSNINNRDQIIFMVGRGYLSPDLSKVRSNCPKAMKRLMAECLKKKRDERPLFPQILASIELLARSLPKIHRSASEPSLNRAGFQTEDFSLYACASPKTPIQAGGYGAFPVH
MEK5, sequence (Q13163 whole entry, canonical isoform): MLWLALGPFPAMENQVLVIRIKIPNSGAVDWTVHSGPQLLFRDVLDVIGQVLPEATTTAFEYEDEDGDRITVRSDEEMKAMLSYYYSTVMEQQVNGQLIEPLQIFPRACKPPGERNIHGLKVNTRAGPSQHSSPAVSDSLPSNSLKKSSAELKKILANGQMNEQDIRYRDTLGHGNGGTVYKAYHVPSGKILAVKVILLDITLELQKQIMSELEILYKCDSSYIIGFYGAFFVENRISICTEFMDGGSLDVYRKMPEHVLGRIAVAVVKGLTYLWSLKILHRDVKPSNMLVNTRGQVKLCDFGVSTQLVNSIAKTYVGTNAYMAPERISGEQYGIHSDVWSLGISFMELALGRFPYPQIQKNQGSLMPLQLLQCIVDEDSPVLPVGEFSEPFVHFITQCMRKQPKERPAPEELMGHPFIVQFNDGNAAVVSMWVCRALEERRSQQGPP
KDR/VEGFR2, sequence (P35968 20-1356): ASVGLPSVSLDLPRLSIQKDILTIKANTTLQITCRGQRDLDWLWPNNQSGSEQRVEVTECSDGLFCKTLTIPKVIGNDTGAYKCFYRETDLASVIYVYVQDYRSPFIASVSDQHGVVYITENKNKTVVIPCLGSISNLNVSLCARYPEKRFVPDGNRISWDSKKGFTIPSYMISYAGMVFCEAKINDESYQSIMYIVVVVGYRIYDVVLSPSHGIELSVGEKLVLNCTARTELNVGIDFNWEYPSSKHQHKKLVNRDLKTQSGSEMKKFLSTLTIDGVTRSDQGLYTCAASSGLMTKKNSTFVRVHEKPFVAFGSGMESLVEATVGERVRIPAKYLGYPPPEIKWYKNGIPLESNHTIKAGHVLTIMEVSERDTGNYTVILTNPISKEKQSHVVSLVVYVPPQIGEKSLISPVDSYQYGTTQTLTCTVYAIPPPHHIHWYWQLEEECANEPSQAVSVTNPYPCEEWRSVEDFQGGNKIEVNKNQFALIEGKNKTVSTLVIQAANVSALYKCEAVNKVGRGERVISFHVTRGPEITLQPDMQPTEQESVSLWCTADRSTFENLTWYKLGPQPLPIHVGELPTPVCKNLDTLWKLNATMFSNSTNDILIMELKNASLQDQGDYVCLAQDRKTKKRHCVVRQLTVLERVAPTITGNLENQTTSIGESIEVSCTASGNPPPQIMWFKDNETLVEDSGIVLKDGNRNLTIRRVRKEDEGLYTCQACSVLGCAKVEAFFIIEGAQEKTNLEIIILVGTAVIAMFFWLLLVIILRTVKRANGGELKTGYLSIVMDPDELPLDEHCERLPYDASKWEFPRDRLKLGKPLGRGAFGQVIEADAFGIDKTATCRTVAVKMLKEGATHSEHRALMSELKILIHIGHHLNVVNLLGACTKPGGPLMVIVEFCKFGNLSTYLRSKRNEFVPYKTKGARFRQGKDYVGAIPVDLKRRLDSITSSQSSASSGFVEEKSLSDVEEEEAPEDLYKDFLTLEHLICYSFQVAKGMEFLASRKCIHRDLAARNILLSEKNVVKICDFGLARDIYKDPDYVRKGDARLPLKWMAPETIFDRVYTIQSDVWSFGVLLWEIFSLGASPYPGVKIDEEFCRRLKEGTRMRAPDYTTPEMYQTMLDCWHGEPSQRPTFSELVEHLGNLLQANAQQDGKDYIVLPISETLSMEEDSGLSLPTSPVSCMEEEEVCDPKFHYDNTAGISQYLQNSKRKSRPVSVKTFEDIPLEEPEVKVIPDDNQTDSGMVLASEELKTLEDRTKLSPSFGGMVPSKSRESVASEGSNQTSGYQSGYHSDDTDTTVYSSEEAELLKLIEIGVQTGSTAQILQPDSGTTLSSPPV
FYN isoform (a), sequence (P06241 whole entry, canonical isoform): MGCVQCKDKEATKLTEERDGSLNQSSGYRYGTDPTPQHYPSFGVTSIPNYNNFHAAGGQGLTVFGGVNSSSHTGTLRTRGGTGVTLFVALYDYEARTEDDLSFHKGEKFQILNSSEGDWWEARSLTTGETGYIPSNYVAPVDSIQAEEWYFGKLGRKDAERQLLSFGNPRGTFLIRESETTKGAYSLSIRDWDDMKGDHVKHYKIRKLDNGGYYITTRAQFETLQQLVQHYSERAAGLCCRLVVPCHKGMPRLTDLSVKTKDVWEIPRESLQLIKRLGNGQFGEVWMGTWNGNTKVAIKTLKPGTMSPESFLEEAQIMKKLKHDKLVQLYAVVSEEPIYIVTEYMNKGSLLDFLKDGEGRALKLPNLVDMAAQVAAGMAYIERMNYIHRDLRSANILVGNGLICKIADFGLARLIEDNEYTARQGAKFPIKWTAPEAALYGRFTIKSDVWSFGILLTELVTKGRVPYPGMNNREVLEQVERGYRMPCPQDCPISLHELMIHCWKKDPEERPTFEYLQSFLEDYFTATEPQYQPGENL

As for `Nc1ncnc2c1c(-c1ccc(Oc3ccccc3)cc1)nn2C[C@@H]1SSC[C@@H]1O` [46 A.], the IC50 in experiment [1] lay in the range of 1000 to 10000 nM; on BRAF, 1 to 10 µM; at HER4, 1000 to 10000 nM; at KDR/VEGFR2, 1 to 10 µM; at RET, 100 to 999 nM; at c-KIT, 1 to 10 µM. Moreover, the Kd at MEK6 and on MEK7 was 1 to 10 µM throughout.

Take `Nc1ncnc2c1c(-c1ccc(Oc3ccccc3)cc1)nn2C[C@H]1SSC[C@@H]1O` [43 B.]: the IC50 in experiment [1] is 100 to 999 nM; at FYN isoform (a), 5 to 99 nM; on FYN isoform (b), 5 to 99 nM; at MEK5, 1 to 10 µM.

`Nc1ncnc2c1c(-c1ccc(Oc3ccccc3)cc1)nn2C[C@H]1SSC[C@H]1O` [46 B.]: the IC50 is 1000 to 10000 nM in experiment [1]; 1 to 10 µM at BRAF; 5 to 99 nM on HER4; 1 to 10 µM at KDR/VEGFR2; 1000 to 10000 nM on RET; 1 to 10 µM on c-KIT. Besides, the IC50 at MEK5 was 1 to 10 µM. For the same compound, the Kd on MEK6 and at MEK7 was 1 to 10 µM each time.

Take `Nc1ncnc2c1c(-c1ccc(Oc3ccccc3)cc1)nn2C[C@@H]1SSC[C@H]1O` [43 A.]: the IC50 in experiment [1] is 1000 to 10000 nM; at FYN isoform (a) it was 5 to 99 nM; on FYN isoform (b), 5 to 99 nM.

Values taken from US10844038B2, “1,2-dithiolane compounds useful in neuroprotection, autoimmune and cancer diseases and conditions” (SABILA BIOSCIENCES LLC, priority 2016, dated 2020).
